Laboratory results published in publication PMC6321124, “Hydrophilic Linear Peptide with Histidine and Lysine Residues as a Key Factor Affecting Antifungal Activity” (International Journal of Molecular Sciences, 2018).
≈ marks a conversion by molar mass, not a printed value. Residues, ends and D or L forms follow the SMILES beside them.

Columns and labels:
[1] = tested on: C. parapsilosis (CCARM 14016); settings: CCARM 14016, 48 h, pH 6
C. albicans (KCTC 7270) = settings: KCTC 7270, 48 h, pH 6
[2] = tested on: F. oxysporum (KCTC 16909); settings: KCTC 16909, 48 h, pH 6
[3] = tested on: Trichoderma viride (KCTC 16992); settings: KCTC 16992, 48 h, pH 6
[4] = tested on: C. albicans (CCARM 14007, amphotericin B-resistant strain); settings: CCARM 14007, 48 h, pH 6
[5] = tested on: F. graminearum (KCTC 16656); settings: KCTC 16656, 48 h, pH 6
F. solani (KCTC 6326) = settings: KCTC 6326, 48 h, pH 6
[6] = tested on: Aspergillus flavus (KCTC 6905); settings: KCTC 6905, 48 h, pH 6
[7] = tested on: Trichoderma virens (KCTC 16924); settings: KCTC 16924, 48 h, pH 6
[8] = tested on: C. gloeosporioides (KCTC 6169); settings: KCTC 6169, 48 h, pH 6
[9] = tested on: F. moniliforme (KCTC 6149); settings: KCTC 6149, 48 h, pH 6
C. krusei (CCARM 14017) = settings: CCARM 14017, 48 h, pH 6
[10] = tested on: C. albicans (CCARM 14001, fluconazole-resistant strain); settings: CCARM 14001, 48 h, pH 6
[11] = tested on: Tricophyton rubrum (KCTC 6345); settings: KCTC 6345, 48 h, pH 6
[12] = tested on: C. albicans (CCARM 14004, fluconazole-resistant strain); settings: CCARM 14004, 48 h, pH 6
[13] = tested on: C. albicans (CCARM 14020, fluconazole-resistant strain); settings: CCARM 14020, 48 h, pH 6

Compound | MIC [1] [µM] | MIC (C. albicans (KCTC 7270)) [µM] | MIC [2] [µM] | MIC [3] [µM] | MIC [4] [µM] | MIC [5] [µM] | MIC (F. solani (KCTC 6326)) [µM] | MIC [6] [µM] | MIC [7] [µM] | MIC [8] [µM] | MIC [9] [µM] | MIC (C. krusei (CCARM 14017)) [µM] | MIC [10] [µM] | MIC [11] [µM] | MIC [12] [µM] | MIC [13] [µM]
NCCCC[C@H](NC(=O)[C@H](CCCCN)NC(=O)[C@@H](N)Cc1c[nH]cn1)C(N)=O [(HKK)1] (H-His-Lys-Lys-NH2) | 1024 (≈ 420 µg/mL) | 1024 (≈ 420 µg/mL) | 256 (≈ 105 µg/mL) | 256 (≈ 105 µg/mL) | 1024 (≈ 420 µg/mL) | 512 (≈ 210 µg/mL) | 256 (≈ 105 µg/mL) | 256 (≈ 105 µg/mL) | 512 (≈ 210 µg/mL) | 1024 (≈ 420 µg/mL) | 256 (≈ 105 µg/mL) | 512 (≈ 210 µg/mL) | 1024 (≈ 420 µg/mL) | 512 (≈ 210 µg/mL) | 1024 (≈ 420 µg/mL) | 1024 (≈ 420 µg/mL)
NCCCC[C@H](NC(=O)[C@H](CCCCN)NC(=O)[C@H](Cc1c[nH]cn1)NC(=O)[C@H](CCCCN)NC(=O)[C@H](CCCCN)NC(=O)[C@@H](N)Cc1c[nH]cn1)C(N)=O [(HKK)2] (H-HKKHKK-NH2) | 64 (≈ 51.5 µg/mL) | 64 (≈ 51.5 µg/mL) | 64 (≈ 51.5 µg/mL) | 64 (≈ 51.5 µg/mL) | 64 (≈ 51.5 µg/mL) | 64 (≈ 51.5 µg/mL) | 32 (≈ 25.7 µg/mL) | 64 (≈ 51.5 µg/mL) | 32 (≈ 25.7 µg/mL) | 16 (≈ 12.9 µg/mL) | 32 (≈ 25.7 µg/mL) | 64 (≈ 51.5 µg/mL) | 64 (≈ 51.5 µg/mL) | 64 (≈ 51.5 µg/mL) | 64 (≈ 51.5 µg/mL) | 64 (≈ 51.5 µg/mL)
NCCCC[C@H](NC(=O)[C@H](CCCCN)NC(=O)[C@H](Cc1c[nH]cn1)NC(=O)[C@H](CCCCN)NC(=O)[C@H](CCCCN)NC(=O)[C@H](Cc1c[nH]cn1)NC(=O)[C@H](CCCCN)NC(=O)[C@H](CCCCN)NC(=O)[C@@H](N)Cc1c[nH]cn1)C(N)=O [(HKK)3] (H-HKKHKKHKK-NH2) | 32 (≈ 38.3 µg/mL) | 64 (≈ 76.6 µg/mL) | 32 (≈ 38.3 µg/mL) | 16 (≈ 19.2 µg/mL) | 64 (≈ 76.6 µg/mL) | 32 (≈ 38.3 µg/mL) | 16 (≈ 19.2 µg/mL) | 16 (≈ 19.2 µg/mL) | 16 (≈ 19.2 µg/mL) | 8 (≈ 9.58 µg/mL) | 16 (≈ 19.2 µg/mL) | 16 (≈ 19.2 µg/mL) | 64 (≈ 76.6 µg/mL) | 32 (≈ 38.3 µg/mL) | 64 (≈ 76.6 µg/mL) | 64 (≈ 76.6 µg/mL)
NCCCC[C@H](NC(=O)[C@H](CCCCN)NC(=O)[C@H](Cc1c[nH]cn1)NC(=O)[C@H](CCCCN)NC(=O)[C@H](CCCCN)NC(=O)[C@H](Cc1c[nH]cn1)NC(=O)[C@H](CCCCN)NC(=O)[C@H](CCCCN)NC(=O)[C@H](Cc1c[nH]cn1)NC(=O)[C@H](CCCCN)NC(=O)[C@H](CCCCN)NC(=O)[C@@H](N)Cc1c[nH]cn1)C(N)=O [(HKK)4] (H-HKKHKKHKKHKK-NH2) | 32 (≈ 50.9 µg/mL) | 32 (≈ 50.9 µg/mL) | 4 (≈ 6.36 µg/mL) | 4 (≈ 6.36 µg/mL) | 32 (≈ 50.9 µg/mL) | 16 (≈ 25.5 µg/mL) | 4 (≈ 6.36 µg/mL) | 8 (≈ 12.7 µg/mL) | 16 (≈ 25.5 µg/mL) | 2 (≈ 3.18 µg/mL) | 4 (≈ 6.36 µg/mL) | 4 (≈ 6.36 µg/mL) | 32 (≈ 50.9 µg/mL) | 16 (≈ 25.5 µg/mL) | 32 (≈ 50.9 µg/mL) | 32 (≈ 50.9 µg/mL)
NCCCC[C@H](NC(=O)[C@H](CCCCN)NC(=O)[C@H](Cc1c[nH]cn1)NC(=O)[C@H](CCCCN)NC(=O)[C@H](CCCCN)NC(=O)[C@H](Cc1c[nH]cn1)NC(=O)[C@H](CCCCN)NC(=O)[C@H](CCCCN)NC(=O)[C@H](Cc1c[nH]cn1)NC(=O)[C@H](CCCCN)NC(=O)[C@H](CCCCN)NC(=O)[C@H](Cc1c[nH]cn1)NC(=O)[C@H](CCCCN)NC(=O)[C@H](CCCCN)NC(=O)[C@H](Cc1c[nH]cn1)NC(=O)[C@H](CCCCN)NC(=O)[C@H](CCCCN)NC(=O)[C@@H](N)Cc1c[nH]cn1)C(N)=O [(HKK)6] (H-HKKHKKHKKHKKHKKHKK-NH2) | 16 (≈ 38 µg/mL) | 16 (≈ 38 µg/mL) | 2 (≈ 4.76 µg/mL) | 2 (≈ 4.76 µg/mL) | 16 (≈ 38 µg/mL) | 8 (≈ 19 µg/mL) | 2 (≈ 4.76 µg/mL) | 4 (≈ 9.51 µg/mL) | 8 (≈ 19 µg/mL) | 1 (≈ 2.38 µg/mL) | 2 (≈ 4.76 µg/mL) | 4 (≈ 9.51 µg/mL) | 16 (≈ 38 µg/mL) | 8 (≈ 19 µg/mL) | 16 (≈ 38 µg/mL) | 16 (≈ 38 µg/mL)
NCCCC[C@H](NC(=O)[C@H](CCCCN)NC(=O)[C@H](Cc1c[nH]cn1)NC(=O)[C@H](CCCCN)NC(=O)[C@H](CCCCN)NC(=O)[C@H](Cc1c[nH]cn1)NC(=O)[C@H](CCCCN)NC(=O)[C@H](CCCCN)NC(=O)[C@H](Cc1c[nH]cn1)NC(=O)[C@H](CCCCN)NC(=O)[C@H](CCCCN)NC(=O)[C@H](Cc1c[nH]cn1)NC(=O)[C@H](CCCCN)NC(=O)[C@H](CCCCN)NC(=O)[C@H](Cc1c[nH]cn1)NC(=O)[C@H](CCCCN)NC(=O)[C@H](CCCCN)NC(=O)[C@H](Cc1c[nH]cn1)NC(=O)[C@H](CCCCN)NC(=O)[C@H](CCCCN)NC(=O)[C@H](Cc1c[nH]cn1)NC(=O)[C@H](CCCCN)NC(=O)[C@H](CCCCN)NC(=O)[C@@H](N)Cc1c[nH]cn1)C(N)=O [(HKK)8] (H-HKKHKKHKKHKKHKKHKKHKKHKK-NH2) | 8 (≈ 25.3 µg/mL) | 8 (≈ 25.3 µg/mL) | 2 (≈ 6.33 µg/mL) | 1 (≈ 3.16 µg/mL) | 8 (≈ 25.3 µg/mL) | 4 (≈ 12.7 µg/mL) | 1 (≈ 3.16 µg/mL) | 2 (≈ 6.33 µg/mL) | 4 (≈ 12.7 µg/mL) | 1 (≈ 3.16 µg/mL) | 2 (≈ 6.33 µg/mL) | 4 (≈ 12.7 µg/mL) | 8 (≈ 25.3 µg/mL) | 2 (≈ 6.33 µg/mL) | 8 (≈ 25.3 µg/mL) | 8 (≈ 25.3 µg/mL)
